Experimental data as given in US11478471B2, “Methods and compositions for treating diabetes, metabolic syndrome and other conditions” (priority 2005, dated 2022).
In brackets after ≈: the same amount, converted by molar mass. Entries after “also recorded” stand apart in the source; their conditions may differ.

Assays:
cholesterol levels = test: Cholesterol levels in rats after oral dosing; type: in vivo, Sprague Dawley rats; conditions: for Cholesterol Levels (mean ± SEM): single oral 200 mg/kg
Protocol: The rats were maintained as described above; the drugs were suspended in olive oil, and each rat was dosed once via gastric tube to achieve a dose of 200 mg/kg. All of the rats were dosed at a specific time so that all terminations occurred between 6 and 7 pm. […] Following sacrifice, plasma was prepared, and the concentration of corticosterone in the plasma was determined by ELISA. In the same plasma samples, total cholesterol levels were also determined.

Candida albicans = test: Antifungal MIC; type: cell-based
Candida parapsilosis = test: Antifungal MIC; type: cell-based; conditions: Lodderomyces parapsilosis
Issatchenkia orientalis = test: Antifungal MIC; type: cell-based; conditions: Pichia kudriavzevii
[1] = Toxicokinetics of racemic ketoconazole in another 28-day dog study (b); conditions: dogs; for Cmax / AUC(0-t) / concentration at 0 h / concentration at 1 h / concentration at 2 h / concentration at 4 h / concentration at 8 h / concentration at 12 h / Tmax: beagle, dog, plasma, po; for AUC(0-t): AUC(0-12), footnote: AUC data is for 0-24 h; for concentration at 0 h / concentration at 1 h / concentration at 2 h / concentration at 4 h / concentration at 8 h / concentration at 12 h: Drug concentration in plasma; for Tmax: Tmax Range
Excerpt: Two groups of three male and three female dogs per group were studied.
Toxicokinetic samples were collected on Day 1 and during Weeks 2 and 4. […] For the following Table: *Days of treatment.

rat hepatocytes = conditions: cultured rat hepatocytes, four hours exposure; cited from earlier work
[2] = 28 day GLP toxicity study in dogs; conditions: dogs, 40 mg/kg/day, led to cessation of dosing after 9 days
[3] = female, 10 mg/kg, study b, powder, 10 mg/kg oral, day 1, F
[4] = female, 10 mg/kg, study b, powder, 10 mg/kg oral, day 28, F
[5] = female, 40 mg/kg, study b, powder, 40 mg/kg oral, day 1, F
[6] = female, 40 mg/kg, study b, powder, dose and days not printed in the row (40 mg/kg, day 28), F
[7] = female, 40 mg/kg, study b, powder, 40 mg/kg oral, day 28, F
[8] = male, 10 mg/kg, study b, powder, 10 mg/kg oral, day 1, M
[9] = male, 10 mg/kg, study b, powder, 10 mg/kg oral, day 28, M
[10] = male, 40 mg/kg, study b, powder, 40 mg/kg oral, day 1, M
[11] = male, 40 mg/kg, study b, powder, dose and days not printed in the row (40 mg/kg, day 28), M
[12] = male, 40 mg/kg, study b, powder, 40 mg/kg oral, day 28, M

CC(=O)N1CCN(c2ccc(OCC3COC(Cn4ccnc4)(c4ccc(Cl)cc4Cl)O3)cc2)CC1 (racemic) [Racemic ketoconazole, 1-acetyl-4-[4-[[2-(2,4-dichlorophenyl)-2-[(1H-imidazol-1-yl)-methyl]-1,3-dioxolan-4-yl]methoxy]phenyl]piperazine]
efficacy at lowering cholesterol (cholesterol levels; 200 mg/kg oral, up to 24 hours): intermediate between the two enantiomers
Cholesterol Levels (mean ± SEM) (cholesterol levels; 4 h): 81.2 ± 3.9 mg/dL
Cholesterol Levels (mean ± SEM) (cholesterol levels; 8 h): 73.5 ± 2.3 mg/dL
Cholesterol Levels (mean ± SEM) (cholesterol levels; 12 h): 69.6 ± 2.3 mg/dL
Cholesterol Levels (mean ± SEM) (cholesterol levels; 16 h): 69.6 ± 3.1 mg/dL
MIC (Candida albicans; 48 h): < 0.015 µg/mL
MIC (Candida albicans; DSM11225, 48 h): < 0.015 µg/mL
MIC (Candida albicans; DSM11943, 48 h): < 0.015 µg/mL
MIC (Candida albicans; DSM11944, 48 h): < 0.015 µg/mL
MIC (Candida albicans; DSM11945, 48 h): 0.03 µg/mL (≈ 0.0565 µM)
MIC (Candida albicans; DSM11948, 48 h): < 0.015 µg/mL
MIC (Candida albicans; DSM11949, 48 h): 0.125 µg/mL (≈ 0.235 µM)
MIC (Candida parapsilosis; DSM05784, 48 h): 0.03 µg/mL (≈ 0.0565 µM)
MIC (Candida parapsilosis; DSM11224, 48 h): < 0.015 µg/mL
MIC (Issatchenkia orientalis; DSM11956, 48 h): 0.25 µg/mL (≈ 0.47 µM)
MIC (Issatchenkia orientalis; DSM11958, 48 h): 1 µg/mL (≈ 1.88 µM)
Cmax ([1]; both, 10 mg/kg, 10 mg/kg, day 28): 7520 to 9200 ng/mL
Cmax ([1]; both, 40 mg/kg, 40 mg/kg, day 28): 42800 to 46800 ng/mL
change of exposure (AUC, Cmax) with repeat dosing, day 28 vs day 1 ([1]; daily oral dosing for 28 days): AUC determined after a single dose was significantly reduced in comparison to the AUC determined after 28 daily doses; also recorded: significant increase between day 1 and day 28
AUC(0-t) [1, 3]: 6730 ng·h/mL
AUC(0-t) [1, 4]: 33100 ng·h/mL
Cmax [1, 3]: 1580 ng/mL
Cmax [1, 4]: 7520 ng/mL
concentration at 0 h [1, 3]: < 250 ng/mL
concentration at 1 h [1, 3]: 1300 ng/mL
concentration at 2 h [1, 3]: 1230 ng/mL
concentration at 4 h [1, 3]: 590 ng/mL
concentration at 8 h [1, 3]: < 250 ng/mL
concentration at 12 h [1, 3]: < 250 ng/mL
concentration at 0 h [1, 4]: < 250 ng/mL
concentration at 1 h [1, 4]: 7280 ng/mL
concentration at 2 h [1, 4]: 7210 ng/mL
concentration at 4 h [1, 4]: 4390 ng/mL
concentration at 8 h [1, 4]: 850 ng/mL
concentration at 12 h [1, 4]: < 250 ng/mL
Tmax [1, 3]: 1 to 8 h
Tmax [1, 4]: 1 to 2 h
AUC(0-t) [1, 5]: 42900 ng·h/mL
AUC(0-t) [1, 6]: 639000 ng·h/mL
Cmax [1, 5]: 6230 ng/mL
Cmax [1, 6]: 42800 ng/mL
concentration at 0 h [1, 5]: < 250 ng/mL
concentration at 1 h [1, 5]: 5650 ng/mL
concentration at 2 h [1, 5]: 5760 ng/mL
concentration at 4 h [1, 5]: 3300 ng/mL
concentration at 8 h [1, 5]: 1840 ng/mL
concentration at 12 h [1, 5]: 1550 ng/mL
concentration at 0 h [1, 7]: 12800 ng/mL
concentration at 1 h [1, 7]: 12300 ng/mL
concentration at 2 h [1, 7]: 31600 ng/mL
concentration at 4 h [1, 7]: 38600 ng/mL
concentration at 8 h [1, 7]: 40400 ng/mL
concentration at 12 h [1, 7]: 29900 ng/mL
Tmax [1, 5]: 2 to 12 h
Tmax [1, 6]: 4 to 8 h
AUC(0-t) [1, 8]: 9010 ng·h/mL
AUC(0-t) [1, 9]: 44200 ng·h/mL
Cmax [1, 8]: 1430 ng/mL
Cmax [1, 9]: 9200 ng/mL
concentration at 0 h [1, 8]: < 250 ng/mL
concentration at 1 h [1, 8]: 380 ng/mL
concentration at 2 h [1, 8]: 620 ng/mL
concentration at 4 h [1, 8]: 1180 ng/mL
concentration at 8 h [1, 8]: 330 ng/mL
concentration at 12 h [1, 8]: < 250 ng/mL
concentration at 0 h [1, 9]: < 250 ng/mL
concentration at 1 h [1, 9]: 7530 ng/mL
concentration at 2 h [1, 9]: 8630 ng/mL
concentration at 4 h [1, 9]: 6200 ng/mL
concentration at 8 h [1, 9]: 1440 ng/mL
concentration at 12 h [1, 9]: 430 ng/mL
Tmax [1, 8]: 2 to 4 h
Tmax [1, 9]: 1 to 2 h
AUC(0-t) [1, 10]: 180000 ng·h/mL
AUC(0-t) [1, 11]: 542000 ng·h/mL
Cmax [1, 10]: 23300 ng/mL
Cmax [1, 11]: 46800 ng/mL
concentration at 0 h [1, 10]: < 250 ng/mL
concentration at 1 h [1, 10]: 10300 ng/mL
concentration at 2 h [1, 10]: 14600 ng/mL
concentration at 4 h [1, 10]: 23100 ng/mL
concentration at 8 h [1, 10]: 10100 ng/mL
concentration at 12 h [1, 10]: 6700 ng/mL
concentration at 0 h [1, 12]: 3970 ng/mL
concentration at 1 h [1, 12]: 11900 ng/mL
concentration at 2 h [1, 12]: 24600 ng/mL
concentration at 4 h [1, 12]: 32700 ng/mL
concentration at 8 h [1, 12]: 46800 ng/mL
concentration at 12 h [1, 12]: 28300 ng/mL
Tmax [1, 10]: 2 to 4 h
Tmax [1, 11]: 8 h
concentrations with no detectable effect on LDH release (rat hepatocytes): below 75 microM
body weight losses [2]: up to 17.3%
